Patent US9273057B2 (Bristol-Myers Squibb Company, priority 2012, dated 2016)
Structures can show the parent of a compound that is named as a salt.

Biological target: CK2A1 (CK2α/β) (Homo sapiens, UniProt P68400)
Assay: CK2 kinase assay, CK2A1 (CK2α/β)
Assay type: biochemical
Conditions: Table A; read-out: CK2A1 (CK2α/β) (IC50)

Chain of CK2A1 (CK2α/β) (P68400 whole entry, species assumed): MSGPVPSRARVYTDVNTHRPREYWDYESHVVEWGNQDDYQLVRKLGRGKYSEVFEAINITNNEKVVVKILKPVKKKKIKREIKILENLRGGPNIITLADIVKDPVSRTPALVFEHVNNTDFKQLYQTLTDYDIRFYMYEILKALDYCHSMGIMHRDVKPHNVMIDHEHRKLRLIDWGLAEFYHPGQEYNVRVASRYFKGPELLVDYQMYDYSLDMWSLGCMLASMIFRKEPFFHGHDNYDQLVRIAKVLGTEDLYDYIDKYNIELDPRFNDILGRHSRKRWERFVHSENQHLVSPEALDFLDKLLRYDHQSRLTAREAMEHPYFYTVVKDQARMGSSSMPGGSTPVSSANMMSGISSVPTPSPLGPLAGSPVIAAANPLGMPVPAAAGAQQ
Chain of CK2A1 (CK2α/β) (P67870 whole entry partner, species assumed): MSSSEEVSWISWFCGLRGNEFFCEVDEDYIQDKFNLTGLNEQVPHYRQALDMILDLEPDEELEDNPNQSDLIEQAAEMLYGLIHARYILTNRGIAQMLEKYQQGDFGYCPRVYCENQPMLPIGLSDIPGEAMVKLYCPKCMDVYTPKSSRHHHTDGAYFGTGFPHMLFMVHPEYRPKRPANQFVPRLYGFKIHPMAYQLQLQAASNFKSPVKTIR

Compound	IC50
CN1CCN(c2cc(C#N)cc(Nc3nc(NC4CC4)c4ncc(C#N)n4n3)c2Cl)CC1C(C)(C)O (racemic) [Example 34, (+/−) 2-((2-chloro-5-cyano-3-(3-(1-hydroxy-1-methylethyl)-4-methyl-1-piperazinyl)phenyl)amino)-4-(cyclopropylamino)imidazo [2,1-f][1,2,4]triazine-7-carbonitrile]	0.92 nM
N#Cc1cc(Nc2nc(NC3CC3)c3ncc(C#N)n3n2)c(Cl)c(N2CCN(C3CCNC3=O)CC2)c1 (stereo not drawn) [Example 581, 2-({2-chloro-5-cyano-3-[4-(2-oxopyrrolidin-3-yl)piperazin-1-yl]phenyl}amino)-4-(cyclopropylamino)imidazo [2,1-f][1,2,4]triazine-7-carbonitrile]	3.59 nM
CCNc1nc(Nc2cc(C#N)cc(C3CN(C4COC4)C3)c2Cl)nn2c(C#N)cnc12 [Example 359, 2-((2-chloro-5-cyano-3-(1-(oxetan-3-yl)azetidin-3-yl)phenyl)amino)-4-(ethylamino)imidazo[2,1-f][1,2,4]triazine-7-carbonitrile]	1.58 nM
N#Cc1cc(Nc2nc(NC3CC3)c3ncc(C#N)n3n2)c(Cl)c(N2CCC3CCNC3C2)c1 (racemic) [Example 454, (+/−)-2-((2-chloro-5-cyano-3-(hexahydro-1H-pyrrolo[2,3-c]pyridin-6(2H)-yl)phenyl)amino)-4-(cyclopropylamino)imidazo[2,1-f][1,2,4]triazine-7-carbonitrile]	1.25 nM
CCNc1nc(Nc2cc(C#N)cc(N3CC[C@@H](NC(=O)OC)[C@H](OC(=O)C[C@H]4CC[C@H](N)CC4)C3)c2Cl)nn2c(C#N)cnc12 [Example 820, (3R,4R)-1-(2-chloro-5-cyano-3-((7-cyano-4-(ethylamino)imidazo[2,1-f][1,2,4]triazin-2-yl)amino)phenyl)-4-((methoxycarbonyl)amino)piperidin-3-yl 2-((1r,4R)-4-aminocyclohexyl)acetate hydrochloride]	5.96 nM
N#Cc1cc(Nc2nc(NC3CC3)c3ncc(C#N)n3n2)c(Cl)c(N2CC[C@H]3[C@H](CCN3C3CS(=O)(=O)CC3O)C2)c1 (stereo in doubt) [Example 453, 2-((2-chloro-5-cyano-3-(1-((3S,4S)-4-hydroxy-1,1-dioxidotetrahydrothiophen-3-yl)hexahydro-1H-pyrrolo[3,2-c]pyridin-5(6H)-yl)phenyl)amino)-4-(cyclopropylamino)imidazo[2,1-f][1,2,4]triazine-7-carbonitrile]	1.04 nM
CS(=O)(=O)CC(=O)N1CCN(c2cc(C#N)cc(Nc3nc(NC4CC4)c4ncc(C#N)n4n3)c2Cl)CC1 [Example 89, 2-((2-chloro-5-cyano-3-(4-((methylsulfonyl)acetyl)-1-piperazinyl)phenyl)amino)-4-(cyclopropylamino) imidazo[2,1-f][1,2,4] triazine-7-carbonitrile]	2.9 nM
C[C@H]1OCC[C@@H]1NC1CCN(c2cc(C#N)cc(Nc3nc(NC4CC4)c4ncc(C#N)n4n3)c2Cl)CC1 (racemic) [Example 122, (+/−) 2-((2-chloro-5-cyano-3-(4-(((2R,3S)-2-methyltetrahydro-3-furanyl)amino)-1-piperidinyl)phenyl)amino)-4-(cyclopropylamino)imidazo [2,1-f][1,2,4]triazine-7-carbonitrile]	0.8 nM
COC(=O)N(C)[C@@H]1CCN(c2cc(C#N)cc(Nc3nc(NC4CC4)c4ncc(C#N)n4n3)c2Cl)C[C@H]1O (racemic) [Example 187, (+/−)-methyl ((3R,4R)-1-(2-chloro-5-cyano-3-((7-cyano-4-(cyclopropylamino)imidazo[2,1-f][1,2,4]triazin-2-yl)amino)phenyl)-3-hydroxypiperidin-4-yl)(methyl)carbamate]	0.94 nM
N#Cc1cc(Nc2nc(NC3CC3)c3ncc(C#N)n3n2)c(Cl)c(N2CCN(C3CCS(=O)(=O)C3)CC2)c1 (stereo not drawn) [Example 582, 2-({2-chloro-5-cyano-3-[4-(1,1-dioxo-1λ^6-thiolan-3-yl)piperazin-1-yl]phenyl}amino)-4-(cyclopropylamino)imidazo [2,1-f][1,2,4]triazine-7-carbonitrile]	5.9 nM
CCNc1nc(Nc2cc(C#N)cc(N3CCN(C4CN(C(C)=O)C4)CC3)c2Cl)nn2c(C#N)cnc12 [Example 605, 2-({3-[4-(1-acetylazetidin-3-yl)piperazin-1-yl]-2-chloro-5-cyanophenyl}amino)-4-(ethylamino)imidazo[2,1-f][1,2,4]triazine-7-carbonitrile]	0.91 nM
N#Cc1cc(Nc2nc(NC3CC3)c3ncc(C#N)n3n2)c(Cl)c(N2CCN(C(=O)Cc3nnn[nH]3)CC2)c1 [Example 99, 2-((2-chloro-5-cyano-3-(4-(1H-tetrazol-5-ylacetyl)-1-piperazinyl)phenyl)amino)-4-(cyclopropylamino) imidazo[2,1-f][1,2,4] triazine-7-carbonitrile]	0.32 nM
CC(O)C(=O)N1CCN(c2cc(C#N)cc(Nc3nc(NC4CC4)c4ncc(C#N)n4n3)c2Cl)CC1 (racemic) [Example 80, (+/−) 2-((2-chloro-5-cyano-3-(4-lactoyl-1-piperazinyl)phenyl)amino)-4-(cyclopropylamino) imidazo[2,1-f][1,2,4] triazine-7-carbonitrile]	0.47 nM
N#Cc1cc(Nc2nc(NC3CC3)c3ncc(C#N)n3n2)c(Cl)c(OCC2CNCCO2)c1 (stereo not drawn) [Example 441, 2-((2-chloro-5-cyano-3-(morpholin-2-ylmethoxy)phenyl)amino)-4-(cyclopropylamino)imidazo[2,1-f][1,2,4]triazine-7-carbonitrile]	1.17 nM
COC(=O)N[C@@H]1CN(c2cc(C#N)cc(Nc3nc(NC4CC4)c4ncc(C#N)n4n3)c2Cl)CC[C@H]1O (racemic) [Example 191, (+/−)-methyl ((3R,4R)-1-(2-chloro-5-cyano-3-((7-cyano-4-(cyclopropylamino)imidazo[2,1-f][1,2,4]triazin-2-yl)amino)phenyl)-4-hydroxypiperidin-3-yl)carbamate]	0.66 nM
N#Cc1cc(Nc2nc(NC3CC3)c3ncc(C#N)n3n2)c(Cl)c(-c2cnn(CCN3CCOCC3)c2)c1 [Example 718, 2-[(2-chloro-5-cyano-3-{1-[2-(morpholin-4-yl)ethyl]-1H-pyrazol-4-yl}phenyl)amino]-4-(cyclopropylamino)imidazo [2,1-f][1,2,4]triazine-7-carbonitrile]	0.68 nM
N#Cc1cc(Nc2nc(NC3CC3)c3ncc(C#N)n3n2)c(F)c(N2CCN(CC(O)CF)CC2)c1 (stereo not drawn) [Example 549, 2-((5-cyano-2-fluoro-3-(4-(3-fluoro-2-hydroxypropyl)piperazin-1-yl)phenyl)amino)-4-(cyclopropylamino)imidazo[2,1-f][1,2,4]triazine-7-carbonitrile]	1.25 nM
COC(CO)CNC1CN(c2cc(C(F)F)cc(Nc3nc(NC4CC4)c4ncc(C#N)n4n3)c2Cl)C1 (racemic) [Example 262, (+/−) 2-((2-chloro-5-(difluoromethyl)-3-(3-((3-hydroxy-2-methoxypropyl)amino)-1-azetidinyl)phenyl)amino)-4-(cyclopropylamino)imidazo[2,1-f][1,2,4]triazine-7-carbonitrile]	5 nM
CC(C)(C(N)=O)N1CC2(CCN(c3cc(C#N)cc(Nc4nc(NC5CC5)c5ncc(C#N)n5n4)c3Cl)CC2)C1 [Example 803, 2-(7-(2-chloro-5-cyano-3-((7-cyano-4-(cyclopropylamino)imidazo[2,1-f][1,2,4]triazin-2-yl)amino)phenyl)-2,7-diazaspiro[3.5]nonan-2-yl)-2-methylpropanamide]	2.8 nM
COCCOC(=O)N1CCC(N2CCN(c3cc(C#N)cc(Nc4nc(NC5CC5)c5ncc(C#N)n5n4)c3Cl)CC2)C1 (stereo not drawn) [Example 579, 2-methoxyethyl 3-[4-(2-chloro-5-cyano-3-{[7-cyano-4-(cyclopropylamino)imidazo[2,1-f][1,2,4]triazin-2-yl]amino}phenyl)piperazin-1-yl]pyrrolidine-1-carboxylate]	4.1 nM
N#Cc1cc(Nc2nc(NC3CC3)c3ncc(C#N)n3n2)c(OCCN2CCOCC2)cc1F [Example 421, 2-((5-cyano-4-fluoro-2-(2-morpholinoethoxy)phenyl)amino)-4-(cyclopropylamino)imidazo[2,1-f][1,2,4]triazine-7-carbonitrile]	0.61 nM
N#Cc1cc(Nc2nc(NC3CC3)c3ncc(C#N)n3n2)c(Cl)c(C2CCN(CC(N)=O)CC2)c1 [Example 220, 2-[4-(2-chloro-5-cyano-3-{[7-cyano-4-(cyclopropylamino)imidazo[2,1-f][1,2,4]triazin-2-yl]amino}phenyl)piperidin-1-yl]acetamide]	0.7 nM
N#Cc1cc(Nc2nc(NC3CC3)c3ncc(C#N)n3n2)c(Cl)c(N2CCC3(CC2)CN(CC(=O)N2CCNCC2)C3)c1 [Example 804]	1.7 nM
CC(C)(O)CC(=O)N1CC(N2CCN(c3cc(C#N)cc(Nc4nc(NC5CC5)c5ncc(C#N)n5n4)c3Cl)CC2)C1 [Example 490, 2-[(2-chloro-5-cyano-3-{4-[1-(3-hydroxy-3-methylbutanoyl)azetidin-3-yl]piperazin-1-yl}phenyl)amino]-4-(cyclopropylamino)imidazo[2,1-f][1,2,4]triazine-7-carbonitrile]	0.94 nM
CC(c1cc(C#N)cc(Nc2nc(NC3CC3)c3ncc(C#N)n3n2)c1Cl)N1CCNC(=O)C1 (racemic) [Example 679, (+/−)-2-((2-chloro-5-cyano-3-(1-(3-oxopiperazin-1-yl)ethyl)phenyl)amino)-4-(cyclopropylamino)imidazo[2,1-f][1,2,4]triazine-7-carbonitrile]	1.22 nM
CC(=O)NCC(=O)N1CCN(c2cc(C#N)cc(Nc3nc(NC4CC4)c4ncc(C#N)n4n3)c2Cl)CC1 [Example 76, N-(2-(4-(2-chloro-5-cyano-3-((7-cyano-4-(cyclopropylamino)imidazo[2,1-f][1,2,4]triazin-2-yl)amino)phenyl)-1-piperazinyl)-2-oxoethyl)acetamide]	0.75 nM
COC(=O)N1CCC(N2CCN(c3cc(C#N)cc(Nc4nc(NC5CC5)c5ncc(C#N)n5n4)c3Cl)CC2)C1 (stereo not drawn) [Example 591, methyl 3-[4-(2-chloro-5-cyano-3-{[7-cyano-4-(cyclopropylamino)imidazo [2,1-f][1,2,4]triazine-2-yl]amino}phenyl)piperazin-1-yl]pyrrolidine-1-carboxylate]	3.82 nM
